Assay results from PubChem BioAssay AID248 (DTP/NCI, 2004).
Where “and” joins values, the source holds several entries; their conditions need not be identical. Equal values may be shown once. Inconclusive results and toxic doses are left out. No stated cut-off is given here; in the data, active means T/C of 150% or more; inactive means T/C below 125%.

Test system: L1210 leukemia ip in BDF1 mice, survival T/C
Assay: NCI In Vivo Anticancer Drug Screen. Data for tumor model L1210 Leukemia (intraperitoneal) in B6D2F1 (BDF1) mice
Conditions: endpoint: mean survival time, higher = longer survival
Procedure, shortened: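 Survival endpoint. Drug-treated group vs vehicle group, expressed as T divided by C. Tumor passaged by transplantation.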

[1] = dose: 100.0 mg/kg/injection, schedule: Q01DX001 (ip), vehicle: saline with Tween-80
[2] = dose: 100.0 mg/kg/injection, schedule: Q01DX001 (ip), vehicle: saline
[3] = dose: 100.0 mg/kg/injection, schedule: Q01DX001 (ip), vehicle: Klucel (hydroxypropylcellulose) (HPC)
[4] = dose: 200.0 mg/kg/injection, schedule: Q01DX001 (ip), vehicle: Klucel (hydroxypropylcellulose) (HPC)
[5] = dose: 400.0 mg/kg/injection, schedule: Q01DX001 (ip), vehicle: Klucel (hydroxypropylcellulose) (HPC)
[6] = dose: 100.0 mg/kg/injection, schedule: Q04DX003 (ip), vehicle: saline with Tween-80
[7] = dose: 200.0 mg/kg/injection, schedule: Q04DX003 (ip), vehicle: saline with Tween-80
[8] = dose: 400.0 mg/kg/injection, schedule: Q04DX003 (ip), vehicle: saline with Tween-80
[9] = dose: 100.0 mg/kg/injection, schedule: Q01DX009 (ip), vehicle: Klucel (hydroxypropylcellulose) (HPC)
[10] = dose: 100.0 mg/kg/injection, schedule: Q04DX003 (ip), vehicle: Klucel (hydroxypropylcellulose) (HPC)
[11] = dose: 200.0 mg/kg/injection, schedule: Q01DX009 (ip), vehicle: Klucel (hydroxypropylcellulose) (HPC)
[12] = dose: 200.0 mg/kg/injection, schedule: Q04DX003 (ip), vehicle: Klucel (hydroxypropylcellulose) (HPC)
[13] = dose: 400.0 mg/kg/injection, schedule: Q01DX009 (ip), vehicle: Klucel (hydroxypropylcellulose) (HPC)
[14] = dose: 400.0 mg/kg/injection, schedule: Q04DX003 (ip), vehicle: Klucel (hydroxypropylcellulose) (HPC)

Measured: T/C

CN(CCS(=O)(=O)O)/N=C/c1ccc2c(c1)OCO2
inactive: dose: 25.0 mg/kg/injection, schedule: Q01DX009 (ip), vehicle: alcohol 112 % of control | dose: 50.0 mg/kg/injection, schedule: Q01DX009 (ip), vehicle: alcohol 102 % of control | [1] 92 % of control | dose: 100.0 mg/kg/injection, schedule: Q01DX009 (ip), vehicle: alcohol 101 % of control | dose: 150.0 mg/kg/injection, schedule: Q01DX009 (ip), vehicle: Klucel (hydroxypropylcellulose) (HPC) 94 % of control | dose: 225.0 mg/kg/injection, schedule: Q01DX009 (ip), vehicle: Klucel (hydroxypropylcellulose) (HPC) 97 % of control

CN(C)C1CCc2c(ccc3ccccc23)C1=O (stereo unspecified)
inactive: dose: 25.0 mg/kg/injection, schedule: Q01DX001 (ip), vehicle: saline 99 % of control | dose: 50.0 mg/kg/injection, schedule: Q01DX001 (ip), vehicle: saline 99 % of control | [2] 100 % of control

CC(=O)Nc1cc(C)ccc1C
inactive: dose: 50.0 mg/kg/injection, schedule: Q01DX001 (ip), vehicle: Klucel (hydroxypropylcellulose) (HPC) 101 % of control | [3] 91 % of control and 101 % of control | [4] 94 % of control and 104 % of control | [5] 94 % of control

O=C(O)C(SCc1ccccc1)c1ccccc1 (stereo unspecified)
inactive: [2] 91 % of control | [6] 95 % of control | dose: 200.0 mg/kg/injection, schedule: Q01DX001 (ip), vehicle: saline 98 % of control | [7] 95 % of control | dose: 400.0 mg/kg/injection, schedule: Q01DX001 (ip), vehicle: saline 92 % of control | [8] 101 % of control

O=C1C=CC(=O)C(SCC(O)CO)=C1 (stereo unspecified)
inactive: dose: 9.5 mg/kg/injection, schedule: Q01DX001 (ip), vehicle: other 94 % of control | dose: 19.0 mg/kg/injection, schedule: Q01DX001 (ip), vehicle: other 95 % of control | dose: 38.0 mg/kg/injection, schedule: Q01DX001 (ip), vehicle: other 100 % of control

O=C(O)c1cc(I)cc(I)c1
inactive: [6] 105 % of control | [7] 101 % of control | [8] 95 % of control

OCC12NC(=S)OC1C(O)C(O)CO2 (stereo unspecified)
inactive: dose: 50.0 mg/kg/injection, schedule: Q01DX009 (ip), vehicle: saline with Tween-80 104 % of control | dose: 100.0 mg/kg/injection, schedule: Q01DX009 (ip), vehicle: saline with Tween-80 104 % of control | dose: 200.0 mg/kg/injection, schedule: Q01DX009 (ip), vehicle: saline with Tween-80 104 % of control

Cc1ccc(NS(=O)(=O)c2ccc(F)cc2)cc1C
inactive: [9] 95 % of control | [10] 95 % of control | [11] 95 % of control | [12] 105 % of control | [13] 97 % of control | [14] 101 % of control

CC(=O)c1c(C)c([N+](=O)[O-])c(C(C)(C)C)c([N+](=O)[O-])c1C
inactive: [9] 100 % of control | [11] 97 % of control | [13] 96 % of control

Cc1cc(O)c2c(c1)C(=O)C13C(=C2O)C(=O)C2C(O)C1C1C(O)C3C(=O)C3=C(O)c4c(O)cc(C)cc4C(=O)C321 (stereo unspecified)
inactive: dose: 20.0 mg/kg/injection, schedule: Q04DX003 (ip), vehicle: saline with Tween-80 107 % of control | dose: 40.0 mg/kg/injection, schedule: Q04DX003 (ip), vehicle: saline with Tween-80 100 % of control | dose: 80.0 mg/kg/injection, schedule: Q04DX003 (ip), vehicle: saline with Tween-80 102 % of control

Clc1ccc(C(c2ccc(Cl)cc2)C(Cl)Cl)cc1
inactive: [10] 98 % of control | [12] 98 % of control | [14] 98 % of control

O=C(NC(=S)Nc1ccc2ccccc2c1)c1ccc(Cl)cc1Cl
inactive: [1] 100 % of control | dose: 100.0 mg/kg/injection, schedule: Q04DX002 (ip), vehicle: saline with Tween-80 93 % of control and 90 % of control | dose: 200.0 mg/kg/injection, schedule: Q01DX001 (ip), vehicle: saline with Tween-80 101 % of control | dose: 200.0 mg/kg/injection, schedule: Q04DX002 (ip), vehicle: saline with Tween-80 93 % of control and 96 % of control | dose: 400.0 mg/kg/injection, schedule: Q01DX001 (ip), vehicle: saline with Tween-80 96 % of control | dose: 400.0 mg/kg/injection, schedule: Q04DX002 (ip), vehicle: saline with Tween-80 104 % of control and 86 % of control

CCOC(=O)CC(=O)C(F)(F)F.CCOC(=O)CC(=O)C(F)(F)F.[Ni]
inactive: dose: 5.0 mg/kg/injection, schedule: Q01DX001 (ip), vehicle: saline 96 % of control | dose: 10.0 mg/kg/injection, schedule: Q01DX001 (ip), vehicle: saline 98 % of control | dose: 20.0 mg/kg/injection, schedule: Q01DX001 (ip), vehicle: saline 102 % of control | dose: 40.0 mg/kg/injection, schedule: Q01DX001 (ip), vehicle: saline 106 % of control

O=C(O)c1ccc(N=Nc2nc3ccccc3[nH]2)cc1
inactive: dose: 50.0 mg/kg/injection, schedule: Q01DX009 (ip), vehicle: Klucel (hydroxypropylcellulose) (HPC) 90 % of control | [9] 93 % of control | [11] 90 % of control

Cc1ccc(C)c(NS(=O)(=O)c2cc(Cl)c(Cl)cc2Cl)c1
inactive: [9] 98 % of control | [11] 96 % of control

CSc1nc(Cl)nc(C(Cl)(Cl)Cl)c1Cl
inactive: [3] 89 % of control | [4] 103 % of control | [5] 89 % of control

COc1ccc2c(c1)-c1c(O)c(OC)cc3c1C(C2)N(C)CC3 (stereo unspecified)
inactive: dose: 75.0 mg/kg/injection, schedule: Q01DX001 (ip), vehicle: saline 94 % of control | dose: 150.0 mg/kg/injection, schedule: Q01DX001 (ip), vehicle: saline 98 % of control | dose: 300.0 mg/kg/injection, schedule: Q01DX001 (ip), vehicle: saline 100 % of control

CC(C)NC1C2CCC(CC2)C1(O)c1ccc(Cl)c(Cl)c1 (stereo unspecified)
inactive: dose: 25.0 mg/kg/injection, schedule: Q01DX009 (ip), vehicle: saline 101 % of control | dose: 25.0 mg/kg/injection, schedule: Q04DX003 (ip), vehicle: saline 95 % of control | dose: 50.0 mg/kg/injection, schedule: Q01DX009 (ip), vehicle: saline 95 % of control | dose: 50.0 mg/kg/injection, schedule: Q04DX003 (ip), vehicle: saline 97 % of control | dose: 100.0 mg/kg/injection, schedule: Q01DX009 (ip), vehicle: saline 100 % of control | dose: 100.0 mg/kg/injection, schedule: Q04DX003 (ip), vehicle: saline 92 % of control | dose: 200.0 mg/kg/injection, schedule: Q01DX009 (ip), vehicle: saline 95 % of control | dose: 200.0 mg/kg/injection, schedule: Q04DX003 (ip), vehicle: saline 101 % of control | dose: 400.0 mg/kg/injection, schedule: Q01DX009 (ip), vehicle: saline 92 % of control | dose: 400.0 mg/kg/injection, schedule: Q04DX003 (ip), vehicle: saline 92 % of control

COCC(=O)Nc1ccc(Cl)c(Cl)c1
inactive: dose: 100.0 mg/kg/injection, schedule: Q01DX001 (ip), vehicle: carboxymethylcellulose (CMC) 100 % of control | dose: 200.0 mg/kg/injection, schedule: Q01DX001 (ip), vehicle: carboxymethylcellulose (CMC) 92 % of control | dose: 400.0 mg/kg/injection, schedule: Q01DX001 (ip), vehicle: carboxymethylcellulose (CMC) 97 % of control

S=C(SSSSC(=S)N1CCCCC1)N1CCCCC1
inactive: dose: 50.0 mg/kg/injection, schedule: Q04DX003 (ip), vehicle: Klucel (hydroxypropylcellulose) (HPC) 97 % of control | [10] 101 % of control | [12] 92 % of control | [14] 92 % of control
